In the assay the target is influenza A virus minigenome (PB2, PB1, PA, NP proteins) (UniProt P04665). Format: cell-based. The following applies: read-out: RNP_Hubei B.
Sequence of influenza A virus minigenome (PB2, PB1, PA, NP proteins) (P04665 whole entry): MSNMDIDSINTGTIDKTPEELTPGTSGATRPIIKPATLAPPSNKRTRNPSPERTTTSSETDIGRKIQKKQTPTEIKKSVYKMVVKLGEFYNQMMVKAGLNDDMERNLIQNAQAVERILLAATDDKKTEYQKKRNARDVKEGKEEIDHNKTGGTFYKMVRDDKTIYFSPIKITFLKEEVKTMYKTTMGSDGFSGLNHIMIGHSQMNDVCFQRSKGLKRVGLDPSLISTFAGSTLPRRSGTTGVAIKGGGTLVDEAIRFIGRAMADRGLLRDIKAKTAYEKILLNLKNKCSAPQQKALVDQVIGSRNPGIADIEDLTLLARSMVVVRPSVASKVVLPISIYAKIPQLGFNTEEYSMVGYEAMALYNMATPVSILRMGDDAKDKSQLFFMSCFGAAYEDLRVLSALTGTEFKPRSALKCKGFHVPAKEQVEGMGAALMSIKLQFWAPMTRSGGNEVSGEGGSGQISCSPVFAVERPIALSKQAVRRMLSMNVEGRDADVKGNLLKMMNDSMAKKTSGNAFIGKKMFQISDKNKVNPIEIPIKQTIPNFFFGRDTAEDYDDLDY
Take `N#Cc1cccc(COc2ccc(-c3cc(C(N)=O)c(=O)[nH]c3C(F)(F)F)cc2)c1` [Example 78, 5-(4-((3-cyanobenzyl)oxy)phenyl)-2-oxo-6-(trifluoromethyl)-1,2-dihydropyridine-3-carboxamide]: the IC50 lay within 25 to 50 µM.

Regarding `NC(=O)c1cc(-c2ccc(OCc3cccc(C(F)(F)F)c3)cc2)c(C(F)(F)F)[nH]c1=O` [Example 79, 2-oxo-6-(trifluoromethyl)-5-(4-((3-(trifluoromethyl)benzyl)oxy)phenyl)-1,2-dihydropyridine-3-carboxamide], the IC50 lay within 5 to 10 µM.

With `NC(=O)c1cc(-c2ccc(OCc3cncnc3)cc2)c(C(F)(F)F)[nH]c1=O` [Example 82, 2-oxo-5-(4-(pyrimidin-5-ylmethoxy)phenyl)-6-(trifluoromethyl)-1,2-dihydropyridine-3-carboxamide], the IC50 lay in the range of 25 to 50 µM.

As to `CN1CCC(COc2ccc(-c3cc(C(N)=O)c(=O)[nH]c3C(F)(F)F)cc2)CC1` [Example 83, 5-(4-((1-methylpiperidin-4-yl)methoxy)phenyl)-2-oxo-6-(trifluoromethyl)-1,2-dihydropyridine-3-carboxamide], the IC50 was in the range of 25 to 50 µM.

Consider `NC(=O)c1cc(-c2ccc(OCc3ccnnc3)cc2)c(C(F)(F)F)[nH]c1=O` [Example 84, 2-oxo-5-(4-(pyridazin-4-ylmethoxy)phenyl)-6-(trifluoromethyl)-1,2-dihydropyridine-3-carboxamide], for which the IC50 was in the range of 25 to 50 µM.

As for `NC(=O)c1cc(-c2ccc(OCc3ccc4cn[nH]c4c3)cc2)c(C(F)(F)F)[nH]c1=O` [Example 85, 5-(4-((1H-indazol-6-yl)methoxy)phenyl)-2-oxo-6-(trifluoromethyl)-1,2-dihydropyridine-3-carboxamide], the IC50 fell in the range of 25 to 50 µM.

For the molecule `NC(=O)c1cc(-c2ccc(OCc3ccc4cc[nH]c4c3)cc2)c(C(F)(F)F)[nH]c1=O` [Example 86, 5-(4-((1H-indol-6-yl)methoxy)phenyl)-2-oxo-6-(trifluoromethyl)-1,2-dihydropyridine-3-carboxamide], the IC50 lay within 5 to 10 µM.

In the case of `NC(=O)c1cc(-c2ccc(OCc3ccc(C(F)(F)F)cc3)cc2)c(C(F)(F)F)[nH]c1=O` [Example 87, 2-oxo-6-(trifluoromethyl)-5-(4-((4-(trifluoromethyl)benzyl)oxy)phenyl)-1,2-dihydropyridine-3-carboxamide], the IC50 was 1 to 5 µM.

As for `NC(=O)c1cc(-c2ccc(OCC3CNC(=O)C3)cc2)c(C(F)(F)F)[nH]c1=O` (stereo not shown) [Example 88, 2-oxo-5-(4-((5-oxopyrrolidin-3-yl)methoxy)phenyl)-6-(trifluoromethyl)-1,2-dihydropyridine-3-carboxamide], the IC50 was in the range of 5 to 10 µM.

Regarding `N#Cc1ccccc1COc1ccc(-c2cc(C(N)=O)c(=O)[nH]c2C(F)(F)F)cc1` [Example 89, 5-(4-((2-cyanobenzyl)oxy)phenyl)-2-oxo-6-(trifluoromethyl)-1,2-dihydropyridine-3-carboxamide], the IC50 is 25 to 50 µM.

On to `NC(=O)c1cc(-c2ccc(OCc3ccn4nnnc4c3)cc2)c(C(F)(F)F)[nH]c1=O` [Example 90, 2-oxo-5-(4-(tetrazolo[1,5-a]pyridin-7-ylmethoxy)phenyl)-6-(trifluoromethyl)-1,2-dihydropyridine-3-carboxamide], for which the IC50 lay in the range of 25 to 50 µM.

For the molecule `NC(=O)c1cc(-c2ccc(OCc3ccn4ccnc4c3)cc2)c(C(F)(F)F)[nH]c1=O` [Example 91, 5-(4-(imidazo[1,2-a]pyridin-7-ylmethoxy)phenyl)-2-oxo-6-(trifluoromethyl)-1,2-dihydropyridine-3-carboxamide], the IC50 was in the range of 25 to 50 µM.

`CN1CCCC(COc2ccc(-c3cc(C(N)=O)c(=O)[nH]c3C(F)(F)F)cc2)C1` (stereo not shown) [Example 92, 5-(4-((1-methylpiperidin-3-yl)methoxy)phenyl)-2-oxo-6-(trifluoromethyl)-1,2-dihydropyridine-3-carboxamide]: the IC50 was 25 to 50 µM.

Take `NC(=O)c1cc(-c2ccc(OCc3ccc(F)c([N+](=O)[O-])c3)cc2)c(C(F)(F)F)[nH]c1=O` [Example 93, 5-(4-((4-fluoro-3-nitrobenzyl)oxy)phenyl)-2-oxo-6-(trifluoromethyl)-1,2-dihydropyridine-3-carboxamide]: the IC50 was 10 to 25 µM.

With `NC(=O)c1cc(-c2ccc(OCc3ccc4no[n+]([O-])c4c3)cc2)c(C(F)(F)F)[nH]c1=O` [Example 94], the IC50 was in the range of 25 to 50 µM.

Consider `N#Cc1cncc(COc2ccc(-c3cc(C(N)=O)c(=O)[nH]c3C(F)(F)F)cc2)c1` [Example 99, 5-(4-((5-cyanopyridin-3-yl)methoxy)phenyl)-2-oxo-6-(trifluoromethyl)-1,2-dihydropyridine-3-carboxamide], for which the IC50 was 25 to 50 µM.

For `NC(=O)c1cc(-c2ccc(OCC3CCCOC3)cc2)c(C(F)(F)F)[nH]c1=O` (stereo not shown) [Example 102, 2-oxo-5-(4-((tetrahydro-2H-pyran-3-yl)methoxy)phenyl)-6-(trifluoromethyl)-1,2-dihydropyridine-3-carboxamide], the IC50 lay in the range of 5 to 10 µM.

On to `Cc1noc(C)c1COc1ccc(-c2cc(C(N)=O)c(=O)[nH]c2C(F)(F)F)cc1` [Example 107, 5-(4-((3,5-dimethylisoxazol-4-yl)methoxy)phenyl)-2-oxo-6-(trifluoromethyl)-1,2-dihydropyridine-3-carboxamide], for which the IC50 was 25 to 50 µM.

Consider `Cn1cc(COc2ccc(-c3cc(C(N)=O)c(=O)[nH]c3C(F)(F)F)cc2)c(C(F)(F)F)n1` [Example 109, 5-(4-((1-methyl-3-(trifluoromethyl)-1H-pyrazol-4-yl)methoxy)phenyl)-2-oxo-6-(trifluoromethyl)-1,2-dihydropyridine-3-carboxamide], for which the IC50 lay in the range of 25 to 50 µM.

For `NC(=O)c1cc(-c2ccc(OCc3ccsc3)cc2)c(C(F)(F)F)[nH]c1=O` [Example 110, 2-oxo-5-(4-(thiophen-3-ylmethoxy)phenyl)-6-(trifluoromethyl)-1,2-dihydropyridine-3-carboxamide], the IC50 was 5 to 10 µM.

As for `Cn1nccc1COc1ccc(-c2cc(C(N)=O)c(=O)[nH]c2C(F)(F)F)cc1` [Example 126, 5-(4-((1-methyl-1H-pyrazol-5-yl)methoxy)phenyl)-2-oxo-6-(trifluoromethyl)-1,2-dihydropyridine-3-carboxamide], the IC50 was in the range of 25 to 50 µM.

Consider `NC(=O)c1cc(-c2ccc(OCc3cncs3)cc2)c(C(F)(F)F)[nH]c1=O` [Example 134, 2-oxo-5-(4-(thiazol-5-ylmethoxy)phenyl)-6-(trifluoromethyl)-1,2-dihydropyridine-3-carboxamide], for which the IC50 lay in the range of 25 to 50 µM.

On to `NC(=O)c1cc(-c2ccc(OCc3nccs3)cc2)c(C(F)(F)F)[nH]c1=O` [Example 143, 2-oxo-5-(4-(thiazol-2-ylmethoxy)phenyl)-6-(trifluoromethyl)-1,2-dihydropyridine-3-carboxamide], for which the IC50 lay in the range of 10 to 25 µM.

Turning to `NC(=O)c1cc(-c2ccc(OCc3cnc(NCC4CC4)nc3)cc2)c(C(F)(F)F)[nH]c1=O` [Example 161], the IC50 lay within 10 to 25 µM.

As to `NC(=O)c1cc(-c2ccc(OCc3cnc4c(c3)ncn4CC3CC3)cc2)c(C(F)(F)F)[nH]c1=O` [Example 175, 5-(4-((3-(cyclopropylmethyl)-3H-imidazo[4,5-b]pyridin-6-yl)methoxy)phenyl)-2-oxo-6-(trifluoromethyl)-1,2-dihydropyridine-3-carboxamide], the IC50 was in the range of 25 to 50 µM.
